Assay [1] deals with T1, human NCX1 (Homo sapiens, UniProt P32418).
T1 construct: expressed in transfected cells
Briefly: Inhibition of Ca2+ influx into cells (NCX1 reverse mode), FLIPR Fluo-4 assay. The format is cell-based. The conditions noted are these: inhibition of NCX1 in reverse mode (Ca2+ influx into cells); read-out: NCX1rv IC50. An outline of the steps: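 CHO cells stably expressing human NCX1, loaded with Fluo-4 AM, preincubated with compound 45 min at 16 °C in pH 7.4 buffer (3.5 mM CaCl2). Reverse mode triggered by 20 µM gramicidin (final); Fluo-4 fluorescence read at 520 nm every 2 s. IC50 from percentage inhibition of max-minus-min fluorescence.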

For assay [2], the target named is T1, human NCX1. Briefly: Inhibition of Ca2+ efflux out of cells (NCX1 forward mode), FLIPR calcium assay. The format is cell-based. To be noted: CHO cells stably expressing human NCX1; Ca2+ efflux after Ionomycin; read-out: NCX1fw IC50 (inhibition of NCX1 in forward mode). An excerpt:
The sodium/calcium exchanger NCX1 can transport calcium ions and sodium ions through the cell membrane. The transport is an exchange of Ca^2+ and Na^+ in two directions depending on membrane potential and ion gradients. At the first direction, named “forward mode” or “calcium export mode”, Ca^2+ is transported out of the cell and Na^+ is transported into the cell. At the other direction, named “reverse mode” or “calcium import mode”, the transport directions are vice versa. The effect of the compounds of the invention on NCX1 was determined in CHO cells stably expressing human NCX1 (gene symbol SLC8A1; cf. WO 2009/115238). The assay is based on the monitoring of intracellular Ca^2+ concentrations using a calcium-sensitive fluorescence dye which is detected by means of a FLIPR device (Fluorimetric Imaging Plate Reader, Molecular Devices).
Assay Technology—Forward Mode
The assay is based on the monitoring of intracellular Ca^2+ concentrations using the PBX Calcium Assay Kit from BD (Becton, Dickinson and Company) with calcium indicator dye 51-9000177BKa (BD, 640177). CHO cells expressing NCX1 were loaded with the dye, and after a preincubation period with the test compound, lonomycin (Calbiochem, 407950) was added. lonomycin is an ionophor for Ca^2+ ions mediating an increase of intracellular Ca^2+ ions. Consequently, intracellular Ca^2+ ions are exchanged against extracellular Na^+ ions (Ca^2+ efflux, forward mode). The decrease of intracellular Ca^2+ ions was detected by measuring the fluorescence of the calcium indicator dye at a wavelength of 520 nm by a FLIPR device.
Briefly, similarly as for the reverse mode, for the forward mode transport assay 18000 cells per well were seeded into a 96 well microplate (Corning COSTAR 3904) and incubated overnight in culture medium (cf. above). A total volume of 100 μl medium per well was used. For the preparation of the FLIPR assay, the culture medium was removed from the plates and 100 μl of assay buffer (133.8 mM NaCl (Sigma, S5886); 4.7 mM KCl (Sigma, P3911); 1.25 mM MgCl2 (Merck, 1.05833.0250); 3.5 mM CaCl2 (Merck, 1.02083.0250); 5 mM glucose (Sigma, G7021); 10 mM Hepes (Sigma, H4034); pH 7.4)) were added to each well in a washing step. Assay buffer was removed, and 100 μl of a solution of the test compound in assay buffer in different concentrations were added into the wells. Further, 100 μl of dye solution (0.09% (v/v) calcium indicator dye, 9.1% (v/v) signal enhancer (from PBX Calcium Assay Kit); in assay buffer) were added into each well. The plates were incubated in the dark at room temperature for 60 min. Meanwhile a 10 μM solution of lonomycin in assay buffer (additionally containing 0.05% fetal calf serum (cf. above); 4° C.) was prepared and stored in the wells of a 96 well microplate (96 well microplate, polypropylene, U-shape (Greiner Bio-One, 650201)). The fluorescence monitoring was performed at 60 measuring points with measurement intervals of 2 sec. After the fifth measuring point, 50 μl of the lonomycin solution were added to each well of the assay plate to give a final lonomycin concentration of 2 μM. For the determination of the IC50 values the minimal fluorescence value was subtracted from the maximal fluorescence value for the fifteenth to fifty-fifth measuring points. The calculation of the IC50 values via the percentage inhibitions of Ca^2+ efflux out of cells (forward mode) effected by the test compound was performed in Biost@t Speed 2.0. “NCX1fw IC50” in Table 2 means the IC50 value (in μM (micromol/liter)) for inhibition of NCX1 in forward mode.

By IC50 is commonly meant the concentration that gives 50% inhibition.

On to `Cc1ccccc1C1CCc2cc(O[C@H]3CC[C@@H](C(=O)NCCO)CC3)ccc2O1` (single isomer, unassigned) [Example 270, cis-4-(2-o-tolyl-chroman-6-yloxy)-cyclohexanecarboxylic acid (2-hydroxy-ethyl)-amide], for which the results for the IC50 at human NCX1 [1] and on human NCX1 [2] were 100 nM and 1000 nM, respectively.
With `Cc1ccccc1[C@H]1CCc2cc(O[C@H]3CC[C@H](C(=O)NCCO)CC3)ccc2O1` [Example 267, trans-4-((R)-2-o-tolyl-chroman-6-yloxy)-cyclohexanecarboxylic acid (2-hydroxy-ethyl)-amide], the IC50 on human NCX1 [1] was found to be 200 nM; at human NCX1 [2], 4400 nM.
Regarding `Cc1ccccc1C1CCc2cc(O[C@H]3CC[C@@H](C(=O)NCCO)CC3)ccc2O1` (single isomer, unassigned) [Example 269, cis-4-(2-o-tolyl-chroman-6-yloxy)-cyclohexanecarboxylic acid (2-hydroxy-ethyl)-amide], the values for the IC50 at human NCX1 [1] and at human NCX1 [2] were 400 nM and 3100 nM, respectively.

(Values after patent US9440941B2, “Substituted chroman-6-yloxy-cycloalkanes and their use as pharmaceuticals” (SANOFI, priority 2013, dated 2016).)
